Source: patent publication EP0255100A2, “Use of trimetrexate and its salts for the preparation of pharmaceutical compositions for treating infections of the mycobacterium-avium-intracellulare complex” (WARNER-LAMBERT COMPANY, priority 1986, dated 1988)
In brackets after ≈: the same amount, converted by molar mass. Read-outs that look alike come from different tables or passages of the source.

Experiments:
[1] = tested on: Mycobacterium avium-intracellulare complex; assay: radiometric assay (14CO2 release from 14C palmitic acid in 7H12 medium, BACTEC 460), percent microorganism killed; format: cell-based; settings: for killing at 16 µg/mL: Mycobacterium avium-intracellulare, 168 h, read-out: Percent Microorganism Killed One Week Post
[2] = tested on: Mycobacterium avium-intracellulare complex; assay: minimal inhibitory concentration by the standard T100 growth inhibition method; format: cell-based
Description: The activity of trimetrexate at several concentrations ranging from 2 to 64 micrograms/ml was tested against fifteen strains of Mycobacterium avium-intracellulare isolated from AIDS patients who were also suffering from infections of the MAI complex. Drug activity was measured using both a radiometric assay and growth inhibition analysis by the T100 method. (S.H. Siddiqi et al., J. Clin. Microbiol., 22: 919-923 (1985); S.H. Siddiqi et al., J. Clin. Microbiol., 13: 908-912 (1981); and D.E. Snyder et al., Am. Rev. Respir. Dis., 123: 402-406 (1981).
In a second test, the minimal inhibitory concentration (MIC) required to inhibit 99% and 99.9% growth of the test strains of the Mycobacterium avium-intracellulare complex was determined employing the standard T100 method. The results appear in Table II where the MIC value is given for each of the tested MAI complex strains.

[3] = MAI Complex Strain 109, trimetrexate 16 µg/ml

MIC ([2]; MAI Complex Strain 100, 99% growth inhibition, read-out: Approximate Minimal Inhibitory Concentration (MIC) 99%): 2 µg/mL (≈ 5.41 µM) | MIC ([2]; MAI Complex Strain 100, 99.9% growth inhibition, read-out: Approximate Minimal Inhibitory Concentration (MIC) 99.9%): 2 µg/mL (≈ 5.41 µM) | MIC ([2]; MAI Complex Strain 101, 99% growth inhibition, read-out: Approximate Minimal Inhibitory Concentration (MIC) 99%): 4 µg/mL (≈ 10.8 µM) | MIC ([2]; MAI Complex Strain 101, 99.9% growth inhibition, read-out: Approximate Minimal Inhibitory Concentration (MIC) 99.9%): 4 µg/mL (≈ 10.8 µM) | MIC ([2]; MAI Complex Strain 102, 99% growth inhibition, read-out: Approximate Minimal Inhibitory Concentration (MIC) 99%): 8 µg/mL (≈ 21.7 µM) | MIC ([2]; MAI Complex Strain 102, 99.9% growth inhibition, read-out: Approximate Minimal Inhibitory Concentration (MIC) 99.9%): 8 µg/mL (≈ 21.7 µM) | MIC ([2]; MAI Complex Strain 103, 99% growth inhibition, read-out: Approximate Minimal Inhibitory Concentration (MIC) 99%): 2 µg/mL (≈ 5.41 µM) | MIC ([2]; MAI Complex Strain 103, 99.9% growth inhibition, read-out: Approximate Minimal Inhibitory Concentration (MIC) 99.9%): 2 µg/mL (≈ 5.41 µM) | MIC ([2]; MAI Complex Strain 104, 99% growth inhibition, read-out: Approximate Minimal Inhibitory Concentration (MIC) 99%): 2 µg/mL (≈ 5.41 µM) | MIC ([2]; MAI Complex Strain 104, 99.9% growth inhibition, read-out: Approximate Minimal Inhibitory Concentration (MIC) 99.9%): 2 µg/mL (≈ 5.41 µM) | MIC ([2]; MAI Complex Strain 105, 99% growth inhibition, read-out: Approximate Minimal Inhibitory Concentration (MIC) 99%): 2 µg/mL (≈ 5.41 µM) | MIC ([2]; MAI Complex Strain 105, 99.9% growth inhibition, read-out: Approximate Minimal Inhibitory Concentration (MIC) 99.9%): 2 µg/mL (≈ 5.41 µM) | MIC ([2]; MAI Complex Strain 107, 99% growth inhibition, read-out: Approximate Minimal Inhibitory Concentration (MIC) 99%): 2 µg/mL (≈ 5.41 µM) | MIC ([2]; MAI Complex Strain 107, 99.9% growth inhibition, read-out: Approximate Minimal Inhibitory Concentration (MIC) 99.9%): 2 µg/mL (≈ 5.41 µM) | MIC ([2]; MAI Complex Strain 108, 99% growth inhibition, read-out: Approximate Minimal Inhibitory Concentration (MIC) 99%): 2 µg/mL (≈ 5.41 µM) | MIC ([2]; MAI Complex Strain 108, 99.9% growth inhibition, read-out: Approximate Minimal Inhibitory Concentration (MIC) 99.9%): 2 µg/mL (≈ 5.41 µM) | MIC ([2]; MAI Complex Strain 109, 99% growth inhibition, read-out: Approximate Minimal Inhibitory Concentration (MIC) 99%): 2 µg/mL (≈ 5.41 µM) | MIC ([2]; MAI Complex Strain 109, 99.9% growth inhibition, read-out: Approximate Minimal Inhibitory Concentration (MIC) 99.9%): 2 µg/mL (≈ 5.41 µM) | MIC ([2]; MAI Complex Strain 110, 99% growth inhibition, read-out: Approximate Minimal Inhibitory Concentration (MIC) 99%): 2 µg/mL (≈ 5.41 µM) | MIC ([2]; MAI Complex Strain 110, 99.9% growth inhibition, read-out: Approximate Minimal Inhibitory Concentration (MIC) 99.9%): 2 µg/mL (≈ 5.41 µM) | MIC ([2]; MAI Complex Strain 111, 99% growth inhibition, read-out: Approximate Minimal Inhibitory Concentration (MIC) 99%): 2 µg/mL (≈ 5.41 µM) | MIC ([2]; MAI Complex Strain 111, 99.9% growth inhibition, read-out: Approximate Minimal Inhibitory Concentration (MIC) 99.9%): 2 µg/mL (≈ 5.41 µM) | MIC ([2]; MAI Complex Strain 113, 99% growth inhibition, read-out: Approximate Minimal Inhibitory Concentration (MIC) 99%): 2 µg/mL (≈ 5.41 µM) | MIC ([2]; MAI Complex Strain 113, 99.9% growth inhibition, read-out: Approximate Minimal Inhibitory Concentration (MIC) 99.9%): 2 µg/mL (≈ 5.41 µM) | MIC ([2]; MAI Complex Strain 116, 99% growth inhibition, read-out: Approximate Minimal Inhibitory Concentration (MIC) 99%): 2 µg/mL (≈ 5.41 µM) | MIC ([2]; MAI Complex Strain 116, 99.9% growth inhibition, read-out: Approximate Minimal Inhibitory Concentration (MIC) 99.9%): 2 µg/mL (≈ 5.41 µM) | MIC ([2]; MAI Complex Strain 117, 99% growth inhibition, read-out: Approximate Minimal Inhibitory Concentration (MIC) 99%): 2 µg/mL (≈ 5.41 µM) | MIC ([2]; MAI Complex Strain 117, 99.9% growth inhibition, read-out: Approximate Minimal Inhibitory Concentration (MIC) 99.9%): 2 µg/mL (≈ 5.41 µM) | MIC ([2]; MAI Complex Strain 128, 99% growth inhibition, read-out: Approximate Minimal Inhibitory Concentration (MIC) 99%): 2 µg/mL (≈ 5.41 µM) | MIC ([2]; MAI Complex Strain 128, 99.9% growth inhibition, read-out: Approximate Minimal Inhibitory Concentration (MIC) 99.9%): 2 µg/mL (≈ 5.41 µM) | MIC ([2]; every strain of the MAI complex tested (summary of Table II), read-out: concentration exhibiting inhibitory activity): ≤ 8 µg/mL
SMILES: COc1cc(NCc2ccc3nc(N)nc(N)c3c2C)cc(OC)c1OC [trimetrexate, 5-methyl-6-{[(3,4,5-trimethoxyphenyl)amino]methyl}-2-4-quinazolinediamine]
Percent Microorganism Killed One Week Post [1, 3]: 42% | killing at 16 µg/mL ([1]; MAI Complex Strain 100, trimetrexate 16 µg/ml): 65% | killing at 16 µg/mL ([1]; MAI Complex Strain 101, trimetrexate 16 µg/ml): 68% | killing at 16 µg/mL ([1]; MAI Complex Strain 108, trimetrexate 16 µg/ml): 70% | killing at 16 µg/mL [1, 3]: 42% | killing at 16 µg/mL ([1]; MAI Complex Strain 116, trimetrexate 16 µg/ml): 91% | bactericidal activity ([1]; all strains of the MAI complex tested, trimetrexate 16 µg/ml alone): potent bactericidal activity
